Measurements as given in ChEMBL document CHEMBL1152560, “Substituted 2-arylbenzothiazoles as kinase inhibitors: hit-to-lead optimization” (Bioorg Med Chem, 2009).

Assays:
[1] = target: T1, Serine/threonine-protein kinase 4 (Homo sapiens) (UniProt Q13043); experiment: Residual activity of MST1 at 1 uM by microplate scintillation counting
T1 sequence (whole entry): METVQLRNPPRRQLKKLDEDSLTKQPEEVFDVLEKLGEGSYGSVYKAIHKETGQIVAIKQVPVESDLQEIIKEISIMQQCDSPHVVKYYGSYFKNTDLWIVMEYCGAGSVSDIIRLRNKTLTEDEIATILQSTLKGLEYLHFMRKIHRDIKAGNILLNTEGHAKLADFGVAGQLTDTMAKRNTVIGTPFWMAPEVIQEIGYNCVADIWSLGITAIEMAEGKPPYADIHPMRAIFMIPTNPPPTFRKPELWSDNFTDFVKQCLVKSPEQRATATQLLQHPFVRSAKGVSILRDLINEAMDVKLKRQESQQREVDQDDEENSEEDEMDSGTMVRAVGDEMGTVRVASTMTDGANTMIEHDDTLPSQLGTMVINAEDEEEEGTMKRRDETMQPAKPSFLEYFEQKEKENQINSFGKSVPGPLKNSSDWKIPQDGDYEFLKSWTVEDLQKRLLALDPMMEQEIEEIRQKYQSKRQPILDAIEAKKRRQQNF

[2] = target: T2, Ephrin type-B receptor 3 (Homo sapiens) (UniProt P54753); experiment: Residual activity of EPHB3 at 1 uM by microplate scintillation counting
T2 sequence (whole entry): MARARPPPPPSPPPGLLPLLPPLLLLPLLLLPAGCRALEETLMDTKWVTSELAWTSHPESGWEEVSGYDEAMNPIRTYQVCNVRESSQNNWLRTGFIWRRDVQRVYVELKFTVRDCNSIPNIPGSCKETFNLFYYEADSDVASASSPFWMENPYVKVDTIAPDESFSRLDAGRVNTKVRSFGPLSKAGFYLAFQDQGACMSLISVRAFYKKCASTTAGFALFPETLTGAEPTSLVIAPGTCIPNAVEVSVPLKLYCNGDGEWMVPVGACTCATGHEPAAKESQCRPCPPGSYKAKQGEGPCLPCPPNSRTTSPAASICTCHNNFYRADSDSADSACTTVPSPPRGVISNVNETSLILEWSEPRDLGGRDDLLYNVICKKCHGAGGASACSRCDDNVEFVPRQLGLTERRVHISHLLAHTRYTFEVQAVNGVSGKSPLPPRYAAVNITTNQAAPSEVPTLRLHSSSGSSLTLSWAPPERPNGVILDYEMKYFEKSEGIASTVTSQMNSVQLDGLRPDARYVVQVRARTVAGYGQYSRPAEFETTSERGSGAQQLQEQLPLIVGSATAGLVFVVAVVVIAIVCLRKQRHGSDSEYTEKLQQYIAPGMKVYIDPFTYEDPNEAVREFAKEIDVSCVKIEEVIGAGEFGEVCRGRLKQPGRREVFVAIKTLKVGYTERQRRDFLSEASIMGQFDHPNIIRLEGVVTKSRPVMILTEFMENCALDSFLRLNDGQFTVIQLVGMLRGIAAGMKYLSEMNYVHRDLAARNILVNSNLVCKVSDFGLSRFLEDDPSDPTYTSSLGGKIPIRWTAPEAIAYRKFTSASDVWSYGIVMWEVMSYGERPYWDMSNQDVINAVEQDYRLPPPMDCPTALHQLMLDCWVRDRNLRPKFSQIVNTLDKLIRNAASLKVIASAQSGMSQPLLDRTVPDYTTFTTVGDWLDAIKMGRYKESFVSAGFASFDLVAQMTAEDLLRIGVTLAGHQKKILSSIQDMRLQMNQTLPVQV

[3] = target: Tyrosine-protein kinase Fes/Fps (Homo sapiens) (UniProt P07332); experiment: Residual activity of FES at 1 uM by microplate scintillation counting
Tyrosine-protein kinase Fes/Fps (Homo sapiens), sequence (P07332 whole entry): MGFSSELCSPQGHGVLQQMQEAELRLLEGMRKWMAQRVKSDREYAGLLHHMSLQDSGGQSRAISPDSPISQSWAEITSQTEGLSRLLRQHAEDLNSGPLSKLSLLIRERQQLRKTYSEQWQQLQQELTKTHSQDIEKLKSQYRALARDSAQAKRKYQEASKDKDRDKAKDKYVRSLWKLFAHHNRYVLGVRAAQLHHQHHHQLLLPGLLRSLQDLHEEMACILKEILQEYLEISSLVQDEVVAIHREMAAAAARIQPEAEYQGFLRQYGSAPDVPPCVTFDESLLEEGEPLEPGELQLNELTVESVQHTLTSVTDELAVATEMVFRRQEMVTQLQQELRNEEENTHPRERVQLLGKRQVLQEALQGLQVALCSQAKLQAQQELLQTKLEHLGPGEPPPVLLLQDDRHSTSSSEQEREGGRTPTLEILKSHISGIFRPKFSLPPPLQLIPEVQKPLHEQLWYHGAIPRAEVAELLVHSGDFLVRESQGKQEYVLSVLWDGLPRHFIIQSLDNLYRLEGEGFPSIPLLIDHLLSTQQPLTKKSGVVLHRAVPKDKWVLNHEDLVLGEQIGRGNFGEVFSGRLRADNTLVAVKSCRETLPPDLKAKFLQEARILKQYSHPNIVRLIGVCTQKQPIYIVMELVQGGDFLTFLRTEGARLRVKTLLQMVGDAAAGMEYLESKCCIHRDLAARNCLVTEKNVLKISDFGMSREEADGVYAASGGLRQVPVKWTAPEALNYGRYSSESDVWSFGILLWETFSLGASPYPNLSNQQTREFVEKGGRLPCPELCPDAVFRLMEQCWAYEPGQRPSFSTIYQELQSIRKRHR

[4] = target: T3, Serine/threonine-protein kinase PLK4 (Homo sapiens) (UniProt O00444); experiment: Residual activity of SAK at 0.1 uM by microplate scintillation counting
T3 sequence (whole entry): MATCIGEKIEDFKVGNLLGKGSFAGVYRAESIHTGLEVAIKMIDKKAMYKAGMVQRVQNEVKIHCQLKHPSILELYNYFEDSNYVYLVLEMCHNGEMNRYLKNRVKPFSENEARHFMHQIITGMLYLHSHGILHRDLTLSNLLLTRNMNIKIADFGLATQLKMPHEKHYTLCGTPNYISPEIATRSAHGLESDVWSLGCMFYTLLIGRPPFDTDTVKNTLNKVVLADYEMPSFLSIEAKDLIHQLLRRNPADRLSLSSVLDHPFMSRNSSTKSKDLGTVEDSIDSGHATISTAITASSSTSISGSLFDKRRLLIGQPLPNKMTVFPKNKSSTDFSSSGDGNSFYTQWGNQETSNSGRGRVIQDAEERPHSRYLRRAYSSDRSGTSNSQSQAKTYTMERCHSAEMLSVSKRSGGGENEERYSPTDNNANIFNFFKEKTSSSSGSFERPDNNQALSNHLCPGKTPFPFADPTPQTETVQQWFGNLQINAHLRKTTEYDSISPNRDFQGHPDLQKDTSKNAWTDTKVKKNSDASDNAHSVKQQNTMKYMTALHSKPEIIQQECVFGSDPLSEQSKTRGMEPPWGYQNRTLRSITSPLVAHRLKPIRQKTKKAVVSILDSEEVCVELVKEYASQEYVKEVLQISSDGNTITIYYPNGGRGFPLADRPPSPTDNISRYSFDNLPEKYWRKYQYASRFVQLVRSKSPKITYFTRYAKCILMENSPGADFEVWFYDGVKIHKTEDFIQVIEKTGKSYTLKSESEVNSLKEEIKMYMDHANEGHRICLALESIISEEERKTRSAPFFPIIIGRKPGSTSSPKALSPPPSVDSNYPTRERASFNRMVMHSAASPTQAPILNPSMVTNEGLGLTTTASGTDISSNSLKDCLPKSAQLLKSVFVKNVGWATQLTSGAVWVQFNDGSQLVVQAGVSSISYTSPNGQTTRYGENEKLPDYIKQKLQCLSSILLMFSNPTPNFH

Structure (SMILES) | residual activity [1] [%] | residual activity [2] [%] | residual activity [3] [%] | residual activity [4] [%]
COc1cc2c(Oc3ccc(-c4nc5ccccc5s4)cc3F)ncnc2cc1OCCCN1CCN(C)CC1 | 101 | 106 | 112 | 80
COc1cc2c(Oc3ccc(-c4nc5ccccc5s4)cc3)ncnc2cc1OCCCN1CCCC1 | 81 | 105 | 123 | 56
COc1cc2c(Oc3ccc(-c4nc5ccccc5s4)cc3)ncnc2cc1OCCCN1CCN(C)CC1 | 87 | 108 | 105 | 63
